Data on 27 compounds can be found in patent US5073563A, “Alkoxycoumarins substituted by a heterocyclic radical, their preparation and therapeutic agents containing these compounds” (BASF Aktiengesellschaft, priority 1988, dated 1991).

The target in one assay is T1, MAO A (Rattus norvegicus, UniProt P21396).
T1 construct: determined in dilute rat brain homogenate; from tissue; host or cells: rat brain homogenate
T1 sequence (P21396 1-526): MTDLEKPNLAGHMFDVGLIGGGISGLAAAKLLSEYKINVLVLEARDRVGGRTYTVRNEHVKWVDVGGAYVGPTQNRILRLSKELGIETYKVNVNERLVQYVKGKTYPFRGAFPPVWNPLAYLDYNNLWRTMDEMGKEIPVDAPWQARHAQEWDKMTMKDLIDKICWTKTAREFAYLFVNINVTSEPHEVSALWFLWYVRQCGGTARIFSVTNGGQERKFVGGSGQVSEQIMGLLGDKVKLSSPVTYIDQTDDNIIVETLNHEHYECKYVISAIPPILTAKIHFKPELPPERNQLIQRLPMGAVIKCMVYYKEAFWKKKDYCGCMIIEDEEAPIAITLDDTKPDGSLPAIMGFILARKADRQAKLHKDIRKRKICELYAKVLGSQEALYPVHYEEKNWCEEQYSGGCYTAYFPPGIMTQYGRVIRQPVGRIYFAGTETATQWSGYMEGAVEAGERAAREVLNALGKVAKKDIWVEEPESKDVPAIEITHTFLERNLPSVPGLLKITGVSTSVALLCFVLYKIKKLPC
The assay is described as follows: MAO A inhibition in dilute rat brain homogenate (14C substrate, 20 min at 37° C). In kind it is biochemical. The settings on record: 14C-phenylethylamine or 14C-tryptamine 0.4 μmol/l, logit-log regression. Here is the method:
(§1) The MAO-inhibiting activity of the novel compounds can be determined using standard methods. […] The mixture was incubated for 20 minutes at 37° C.
(§2) The blank value was determined in similar mixtures with an incubation time of t=0 min.
(§3) From the inhibitory values determined at the various inhibitor concentrations against a control, the mean inhibitory concentration (IC50) was calculated by linear regression following logit-log transformation.

The target of another assay is T2, MAO B (Rattus norvegicus, UniProt P19643).
T2 construct: determined in dilute rat brain homogenate; from tissue; host or cells: rat brain homogenate
T2 sequence (P19643 1-520): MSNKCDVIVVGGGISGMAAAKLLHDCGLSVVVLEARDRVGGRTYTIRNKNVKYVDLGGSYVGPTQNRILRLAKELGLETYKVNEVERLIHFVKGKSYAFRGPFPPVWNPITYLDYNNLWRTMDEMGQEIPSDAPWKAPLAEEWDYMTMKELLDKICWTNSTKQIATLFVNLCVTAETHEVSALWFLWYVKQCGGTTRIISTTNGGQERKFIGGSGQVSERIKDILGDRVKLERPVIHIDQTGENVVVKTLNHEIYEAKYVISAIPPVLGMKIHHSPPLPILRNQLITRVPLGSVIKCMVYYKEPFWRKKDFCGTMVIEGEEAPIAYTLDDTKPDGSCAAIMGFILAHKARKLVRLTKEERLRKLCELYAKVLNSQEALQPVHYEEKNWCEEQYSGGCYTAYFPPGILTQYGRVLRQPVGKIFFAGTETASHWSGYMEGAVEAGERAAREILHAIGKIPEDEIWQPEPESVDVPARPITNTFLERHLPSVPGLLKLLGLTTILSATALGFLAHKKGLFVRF
The assay is described as follows: MAO B inhibition in dilute rat brain homogenate (14C substrate, 20 min at 37° C). It counts as biochemical. The note with it: for IC50 ratio MAO A / MAO B: quotient of IC50 MAO A and IC50 MAO B (selectivity for MAO B), 20 min; for IC50: rat brain homogenate, 14C-phenylethylamine or 14C-tryptamine 0.4 μmol/l, 20 minutes at 37° C, logit-log regression. On the procedure:
as §1, §2, §3

SMILES strings stand for the structures.

On to `Cc1c(C)c2ccc(OCc3cc(C4CCC4)no3)cc2oc1=O` [Example 68, 7-(3-Cyclobutylisoxazol-5-yl)-methoxy-3,4-dimethylcoumarin], for which, on MAO A, the half-maximal inhibitory concentration (IC50) was more than 10000 nM. Besides, on MAO B, the “IC50 ratio MAO A / MAO B” value is given as more than 13000 and inhibition was half-maximal at 0.77 nM (IC50).
The matching figures for `Cc1c(Cl)c(=O)oc2cc(OCc3csc(C4CC4)n3)c(Cl)cc12` [Example 10, 3,6-Dichloro-4-methyl-7-(2-cyclopropylthiazol-4-yl)-methoxycoumarin]: more than 10000 nM, more than 4500 and 2.2 nM.
`COCc1cc(COc2ccc3c(C)c(C)c(=O)oc3c2)on1` [Example 6, 7-(3-Methoxymethylisoxazol-5-yl)-methoxy-3,4-dimethylcoumarin]: the figures for the IC50 against MAO A and at MAO B were approximately 10000 nM and 4.6 nM, respectively. At MAO B, the “IC50 ratio MAO A / MAO B” value is ~ 2200.
For `Cc1ccc(COc2ccc3c(C)c(C)c(=O)oc3c2)s1` [Example 42, 3,4-Dimethyl-7-(2-methylthiophen-5-yl)-methoxycoumarin], inhibition against MAO A was half-maximal at 350 nM (IC50). On MAO B, the “IC50 ratio MAO A / MAO B” value was determined as 680 and the half-maximal inhibitory concentration (IC50) is 0.51 nM.
Regarding `Cc1c(C)c2ccc(OCc3nnc(C4CC4)s3)cc2oc1=O` [Example 94, 3,4-Dimethyl-7-(2-cyclopropyl-1,3,4-thiadiazol-5yl)-methoxycoumarin], the IC50 against MAO A was approximately 10000 nM. At MAO B, the “IC50 ratio MAO A / MAO B” value is ~ 8300 and half-maximal inhibition (IC50) was put at 1.2 nM.
`Cc1c(C)c2ccc(OCc3cc(C4CC4)no3)cc2oc1=O` [Example 51, 7-(3-Cyclopropylisoxazol-5-yl)-methoxy-3,4-dimethylcoumarin] gave a 50% inhibitory concentration (IC50) against MAO A of more than 10000 nM. For the same compound, at MAO B, the “IC50 ratio MAO A / MAO B” value is more than 12500 and half-maximal inhibition (IC50) was put at 0.8 nM.
As for `Cc1c(C)c2ccc(OCc3csc(Cc4ccccc4)n3)cc2oc1=O` [Example 74, 7-(2-Benzylthiazol-4-yl)-methoxy-3,4-dimethylcoumarin], the 50% inhibitory concentration (IC50) against MAO A amounted to 3200 nM; at MAO B it was 5.5 nM. On MAO B, the “IC50 ratio MAO A / MAO B” value is 580.
The corresponding values for `Cc1c(C)c2ccc(OCc3csc(C4CC4)n3)cc2oc1=O` [Example 80, 7-(2-Cyclopropylthiazol-4-yl)-methoxy-3,4-dimethylcoumarin] are approximately 10000 nM, 1.4 nM and ~ 7100.
Regarding `Cc1c(C)c2ccc(OCc3ccc(C(C)(C)C)s3)cc2oc1=O` [Example 92, 7-(2-tert-Butylthiophen-5-yl)-methoxy-3,4-dimethylcoumarin], the IC50 against MAO A is more than 10000 nM; against MAO B, approximately 10 nM. Besides, on MAO B, the “IC50 ratio MAO A / MAO B” value is more than 1000.
The corresponding values for `Cc1c(C)c2ccc(OCc3cc(C(C)C)n(C)n3)cc2oc1=O` [Example 29, 7-(5-Isopropyl-1-methylpyrazol-3-yl)-methoxy-3,4-dimethylcoumarin] are more than 10000 nM, 2.2 nM and more than 4500.
The corresponding values for `Cc1c(C)c2cc(Cl)c(OCc3ccccn3)cc2oc1=O` [Example 100, 6-Chloro-3,4-dimethyl-7-(2-pyridinyl)-methoxycoumarin] are more than 10000 nM, 0.74 nM and more than 13000.
The corresponding values for `Cc1c(C)c2ccc(OCc3cc(C4CCCC4)no3)cc2oc1=O` [Example 78, 7-(3-Cyclopentylisoxazol-5-yl)-methoxy-3,4-dimethylcoumarin] are more than 10000 nM, 1.3 nM and more than 7700.
Take `Cc1c(C)c2ccc(OCc3coc(Cc4cccc(Cl)c4)c3)cc2oc1=O` [Example 25, 7-[2-(3-Chlorobenzyl)-furan-4-yl]-methoxy-3,4-dimethylcoumarin]: at MAO A, the 50% inhibitory concentration (IC50) was more than 10000 nM. In addition, at MAO B, the “IC50 ratio MAO A / MAO B” value is recorded as more than 590 and 17 nM corresponded to half-maximal inhibition (IC50).
As for `Cc1c(C)c2ccc(OCc3cc(C4(C)CC4)no3)cc2oc1=O` [Example 96], the results for the concentration for half-maximal inhibition (IC50) against MAO A and on MAO B were approximately 20000 nM and 0.61 nM, respectively. In addition, the “IC50 ratio MAO A / MAO B” value at MAO B is ~ 32000.
As for `Cc1nnc(COc2cc3oc(=O)c(C)c(C)c3cc2Br)s1` [Example 67, 6-Bromo-3,4-dimethyl-7-(2methyl-1,3,4-thiadiazol-5-yl)-methoxycoumarin], the 50% inhibitory concentration (IC50) on MAO A is more than 10000 nM; on MAO B it was 1.1 nM. Moreover, the “IC50 ratio MAO A / MAO B” value at MAO B is on record as more than 9100.
Regarding `Cc1c(C)c2ccc(OCc3nc(C(C)C)no3)cc2oc1=O` [Example 26, 7-(3-Iospropyl-1,2,4-oxadiazol-5-yl)-methoxy-3,4-dimethylcoumarin], at MAO B, the “IC50 ratio MAO A / MAO B” value was more than 7700 and the midpoint of inhibition, the IC50, lay at 1.3 nM.
Regarding `CCOc1nnc(COc2ccc3c(C)c(C)c(=O)oc3c2)s1` [Example 62, 7-(2-Ethoxy-1,3,4-thiadiazol-5-yl)-methoxy-3,4-dimethylcoumarin], the IC50 on MAO A was more than 10000 nM. On MAO B, the “IC50 ratio MAO A / MAO B” value is listed as more than 1300 and the 50% inhibitory concentration (IC50) was determined as 7.5 nM.
The corresponding values for `CCc1cc2c(C)c(C)c(=O)oc2cc1OCc1nnc(C)s1` [Example 85, 6-Ethyl-3,4-dimethyl-7-(2-methyl-1,3,4-thiadiazol-5-yl)-methoxycoumarin] are more than 10000 nM, more than 1700 and 6.9 nM.
Compound `Cc1nnc(COc2ccc3c(C)c(C)c(=O)oc3c2)s1` [Example 2, 3,4-Dimethyl-7-(2-methyl-1,3,4-thiadiazol-5-yl)-methoxycoumarin] returned an IC50 against MAO A of 3600 nM. Further, at MAO B, the “IC50 ratio MAO A / MAO B” value turned out to be 1200 and half-maximal inhibition (IC50) required 3 nM.
Regarding `Cc1c(C)c2ccc(OCc3cc(C4CC4)n(C)n3)cc2oc1=O` [Example 61, 7-(5-Cyclopropyl-1-methylpyrazol-3-yl)-methoxy-3,4-dimethylcoumarin], the IC50 is more than 10000 nM at MAO A and 1.9 nM against MAO B. Further, at MAO B, the “IC50 ratio MAO A / MAO B” value is more than 1100.
The corresponding values for `Cc1nnc(COc2ccc3c(C)c(Cl)c(=O)oc3c2)s1` [Example 30, 3-Chloro-4-methyl-7-(2-methyl-1,3,4-thiadiazol-5-yl)-methoxycoumarin] are more than 10000 nM, 5.7 nM and more than 1700.
As to `Cc1ccsc1COc1ccc2c(C)c(C)c(=O)oc2c1` [Example 45, 3,4-Dimethyl-7-(3-methylthiophen-2-yl)-methoxycoumarin], on MAO A, the half-inhibitory concentration (IC50) is 230 nM. In addition, at MAO B, the “IC50 ratio MAO A / MAO B” value was determined as 450 and half-maximal inhibition (IC50) was put at 0.51 nM.
The corresponding values for `Cc1nnc(COc2cc3oc(=O)c(Cl)c(C)c3cc2Cl)s1` [Example 101, 3,6-Dichloro-4-methyl-7-(5-methyl-1,3,4-thiadiazol-2-yl)-methoxycoumarin] are more than 10000 nM, more than 10000 and 1 nM.
The corresponding values for `CCCc1cc(COc2ccc3c(C)c(C)c(=O)oc3c2)on1` [Example 4, 3,4-Dimethyl-7-(3-n-propylisoxazol-5-yl)-methoxycoumarin] are approximately 10000 nM, ~ 5900 and 1.7 nM.
The compound `Cc1c(C)c2ccc(OCc3cc(C4CCCCC4)no3)cc2oc1=O` [Example 99, 3,4-Dimethyl-7-(3-cyclohexylisoxazol-5-yl)-methoxycoumarin] showed an IC50 on MAO A of more than 10000 nM. Also, on MAO B, the “IC50 ratio MAO A / MAO B” value was more than 1200 and it took 8.2 nM to reach half-maximal inhibition (IC50).
`Cc1c(C)c2ccc(OCc3nc(C4CC4)no3)cc2oc1=O` [Example 44, 3,4-Dimethyl-7-(3-cyclopropyl-1,2,4-oxadiazol-5-yl)-methoxycoumarin]: at MAO A, the IC50 was approximately 7000 nM. Also, at MAO B, the “IC50 ratio MAO A / MAO B” value is listed as ~ 5800 and inhibition was half-maximal at 1.2 nM (IC50).
As to `Cc1nnc(COc2ccc3c(C)c(C)c(=O)oc3c2)o1` [Example 1, 3,4-Dimethyl-7-(2-methyl-1,3,4-oxadiazol-5-yl)-methoxycoumarin], the “IC50 ratio MAO A / MAO B” value on MAO B is 370.

Usually IC50 stands for the point on the concentration scale where inhibition reaches its midpoint.
